Consider 18 compounds from US7772177B2, “BIR domain binding compounds” (Aegera Therapeutics, Inc., priority 2005, dated 2010).

The target in test [1] is T1, GST-XIAP BIR3RING (Homo sapiens, UniProt P98170).
T1 construct: made in house; host or cells: E. coli DH5-alpha
Kind of test: Fluorescence polarization-based competition assay, XIAP Bir3-RING. The class given is binding. In short, it runs like this:
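Competitive fluorescence polarization with GST-XIAP BIR3-RING (aa 246-497, E. coli-expressed) and a fluorescein-labelled peptide probe in 50 mM MES pH 6.5 with BSA; protein fixed at titrated linear-signal level. Compound autofluorescence and quenching checked; IC50 from 10-point dilutions, Ki derived by Nikolovska-Coleska equation.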
(In general: Polarisation of emitted light reports the rotation of a fluorescent probe.)

Test [2] deals with T2, GST-HIAP2 (cIAP-1) BIR 3 (Homo sapiens, UniProt Q13490).
T2 construct: made in house; host or cells: E. coli DH5-alpha
T2 sequence (Q13490 251-363): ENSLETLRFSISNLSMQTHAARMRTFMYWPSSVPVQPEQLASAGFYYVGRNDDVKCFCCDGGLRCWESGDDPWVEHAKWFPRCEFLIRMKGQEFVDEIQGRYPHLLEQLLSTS
Kind of test: Fluorescence polarization-based competition assay, cIAP-1 Bir3. The test is classed as binding. In short, it runs like this:
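GST-cIAP-1 BIR3 (aa 251–363, E. coli) at a titrated fixed level, combined with fluorescein-labelled peptide probe and a 10-point compound series in 50 mM MES pH 6.5 with BSA. Polarization read at ex 485/em 535 nm; IC50 fitted, and Ki derived using the Nikolovska-Coleska equation.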

Test [3] concerns the target T3, GST-HIAP1(cIAP-2) BIR 3 (Homo sapiens, UniProt Q13489).
T3 construct: made in house; host or cells: E. coli DH5-alpha
Kind of test: Fluorescence polarization-based competition assay, cIAP-2 Bir3. The test is classed as binding. In short, it runs like this:
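GST-cIAP-2 BIR3 (aa 236-349, E. coli-expressed) at a pre-titrated fixed level, with fluorescein-labelled AVPF-peptide probe and 10-point compound dilutions in 50 mM MES pH 6.5 with BSA. Fluorescence polarization read at Ex 485/Em 535 nm; IC50 from curve fit, Ki derived per Nikolovska-Coleska equation.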

The target of test [4] is T4, XIAP Bir3-RING (GST-BIR 3RING) (Homo sapiens, UniProt P98170).
T4 construct: made in house; host or cells: E. coli DH5-alpha
T4 sequence (P98170 246-497): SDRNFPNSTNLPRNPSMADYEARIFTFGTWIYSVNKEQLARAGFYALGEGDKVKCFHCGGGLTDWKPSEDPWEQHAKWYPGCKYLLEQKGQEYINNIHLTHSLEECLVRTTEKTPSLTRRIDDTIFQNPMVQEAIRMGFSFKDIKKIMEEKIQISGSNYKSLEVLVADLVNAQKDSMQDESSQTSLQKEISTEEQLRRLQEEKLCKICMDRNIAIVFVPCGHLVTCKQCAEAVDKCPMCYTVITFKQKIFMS
The experiment in a line: Caspase de-repression assay using cellular extracts (apoptosome), XIAP Bir3-RING. The class given is biochemical. The note with it: 293 cell S100 extract. Here is the method: (§1) 100 ug of 293 cell S100 extract and 0.25 uM-2 uM of GST-Xiap fusion protein (GST-BIR 3RING, GST-linker BIR2 BIR3RING) were co-incubated with serial dilutions of compound (0.02 uM-40 uM). Extracts were activated by adding 1 mM dATP, 0.1 mM ALLN, 133 ug Cytochrome C (final concentrations), and incubating at 37° C. for 25 minutes. All reactions and dilutions used S100 buffer (50 mM Pipes pH 7.0, 50 mM KCl, 0.5 mM EGTA pH 8.0, 2 mM MgCl2 supplemented with 1/1000 dilutions of 2 mg/ml Cytochalisin B, 2, mg/ml Chymotstatin, Leupeptin, Pepstatin, Antipain, 0.1M PMSF, 1M DTT). Final reaction volume was 30 ul. Caspase-3 activity was measured by overlaying 30 ul of a 0.4 mM DEVD-AMC solution. AMC cleavage was measured in a TECAN spectrophotometer at 360 nm excitation and 444 nm emission, on a kinetic cycle of 1 hour with readings taken every 5 minutes. Caspase activity was calculated as Vo of AMC fluorescence/sec. Caspase de-repression by our compounds were compared to fully activated extract and activated extract repressed by the presence of XIAP fusion protein.
(§2) Results: Compounds were also tested in the apoptosome assay and the linker-BIR2/caspase-3 inhibition assay and found to have IC50s in the following ranges: A: >10 μM; B: <10 μM; C: <1 μM, as shown in Table 7.

Test [5] concerns the target T5, XIAP Bir2-Bir3-RING (GST-linker BIR2 BIR3RING) (Homo sapiens, UniProt P98170).
T5 construct: made in house; host or cells: E. coli DH5-alpha
The experiment in a line: Caspase de-repression assay using cellular extracts (apoptosome), XIAP Bir2-Bir3-RING. The class given is biochemical. The note with it: 293 cell S100 extract. Here is the method:
as §1, §2

Test [6] addresses T6, caspase-3 inhibited by linker BIR2-BIR3-RING of XIAP (Homo sapiens, UniProt P98170).
T6 construct: made in house; host or cells: E. coli DH5-alpha (GST-XIAP); E. coli AD494 (His-caspase-3)
The experiment in a line: Caspase-3 linker-BIR2-BIR3-RING derepression assay. The class given is biochemical. The procedure: In order to determine the relative activity of the selected compound against BIR2, an in vitro assay was used where caspase-3 was inhibited by linker-BIR2 or linker BIR2-BIR3-RING of XIAP. Briefly, 1.5 ul of the enzyme, 0.25 uM to 2 uM of GST-Xiap fusion protein (GST-linker BIR2, GST-linker BIR2BIR3RING) were co-incubated with serial dilutions of compound (80 uM-0.04 uM). Caspase 3 activity was measured by overlaying 25 ul of a 0.4 mM DEVD-AMC solution. Final reaction volume was 100 ul. All dilutions were performed in caspase buffer (50 mM Hepes pH 7.4, 100 mM NaCl, 10% sucrose, 1 mM EDTA, 10 mM DTT, 0.1% CHAPS (Stennicke, H. R., and Salvesen, G. S. (1997). Biochemical characteristics of caspase-3, -6, -7, and -8. J. Biol. Chem. 272, 25719-25723)).
The fluorescent AMC released from the caspase-3 hydrolysis of the substrate was measured in a TECAN spectrophotometer at 360 nm excitation and 444 nm emission, on a kinetic cycle of 30 minutes with readings taken every 2 minutes. Caspase activity was calculated as Vo of AMC fluorescence/sec. Caspase de-repression by our compounds were compared to caspase-3 alone and caspase 3 repressed by the presence of XIAP fusion protein.
as §2

Test [7] has as its system MDA-MB-231 cells. The experiment in a line: Survival assay (MTS) on MDA-MB-231 cells. The test is classed as cell-based. The note with it: Homo sapiens, 72 hours, read-out: EC50 MDA-MB-231 breast derived cell line. Here is the method:
MDA-MD-231 (breast) and H460 (lung) cancer cells were cultured in RPMI1640 media supplemented with 10% FBS and 100 units/mL of Penicillin and Steptomycin.
(§3) Survival assays were routinely done on MDA-MB-231 and H460 cells. Cells were seeded in 96 well plates at a respective density of 5000 and 2000 cells per well and incubated at 37° C. in presence of 5% CO2 for 24 hours. Selected compounds were diluted into the media at various concentration ranging from 0.01 uM up to 100 uM. Diluted compounds were added onto the MDA-MB-231 cells. For H460 cells, the compounds were added either alone or in presence of 3 ng/ml of TRAIL. After 72 hours cellular viability was evaluated by MTS based assays. A solution of [3-(4,5-dimethylthiazol-2-yl)-5-(3-carboxymethoxyphenyl)-2-(4-sulfophenyl)-2H-tetrazolium, inner salt; MTS] was added onto cells for a period of 1 to 4 hours. Upon incubation the amount of converted MTS was evaluated using a Tecan spectrophotometer set at 570 nm.

Test [8] relates to XIAP BIR3. The experiment in a line: Pull-down assay with affinity beads, western blot. The test is classed as binding. The note with it: Method 33A. Background: In western blotting, separated proteins are transferred to a membrane and probed.
Procedure: Prior to the pull-down assay the compound 168-affinity-agarose beads were prepared as follows:
300 ul of avidine-agarose beads prepared as 50% slurry in buffer A were incubated with 40 ul compound 168 (2.5 mM final) for 6 hrs at 4° C. with shaking. Upon incubation the beads were washed 3 times with buffer A.
On the day of the pull-down assay, cells such as MDA-MB-231 or 293A were collected and lyzed with a buffer A containing 20 mM Tris HCl, 150 mM NaCl, 10% Glycerol 1% NP-40 and Protease inhibitor cocktail obtained from Sigma with a final protein concentration between 3 to 30 ug/ul.
For the pull-down assay, 60 ul of the compound 168-beads preparation were incubated with 300 ug cells lysate and 10 ul compound 107 (0.36 mM final) or as control with 10 ul of buffer A to get a final volume of 550 ul. The mixture was then incubated at 4 C over night with shaking. The following day, the beads were washed three times with the buffer A and the final bead pellet was re-suspended in 50 ul of 2× Leamli buffer. The samples were then centrifuged and the supernatant was collected for western blot analysis directed against XIAP of the other IAP's.
Alternatively a similar protocol was performed with AVPI-Biotin and IPVA-Biotin probes.
The subject of test [9] is SKOV-3 cell line. The experiment in a line: Cell survival, SKOV-3 cell line. The test is classed as cell-based. The following applies: Homo sapiens, SK-OV-3. The procedure: as §3
Various compounds, including compounds 16, 42, 44, 45, 48, 52, 53, 75, 84 and 89, were tested in the MDA-MB-231 breast derived cell line and found to have EC50 of <5 μM. […] Also, various compounds 175, 176, 177 and 178 were tested against SKOV-3 cell line, and found to have EC50 of <5 μM.

T5 sequence (P98170 93-497): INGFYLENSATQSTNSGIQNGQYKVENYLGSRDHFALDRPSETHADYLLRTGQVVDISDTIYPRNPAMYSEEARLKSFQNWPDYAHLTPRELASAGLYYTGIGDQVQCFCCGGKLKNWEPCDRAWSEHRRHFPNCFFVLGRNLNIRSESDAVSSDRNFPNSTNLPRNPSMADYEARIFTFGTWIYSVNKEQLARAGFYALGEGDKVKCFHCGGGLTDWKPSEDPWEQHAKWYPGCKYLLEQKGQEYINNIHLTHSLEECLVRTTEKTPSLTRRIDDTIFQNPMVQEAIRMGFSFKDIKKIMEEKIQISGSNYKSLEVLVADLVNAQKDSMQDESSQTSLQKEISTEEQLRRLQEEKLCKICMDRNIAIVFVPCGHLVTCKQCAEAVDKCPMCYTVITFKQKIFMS
T6 sequence (P98170 93-497): as above
T1 sequence (P98170 246-497): as the sequence (P98170 246-497) above
T3 sequence (Q13489 236-349): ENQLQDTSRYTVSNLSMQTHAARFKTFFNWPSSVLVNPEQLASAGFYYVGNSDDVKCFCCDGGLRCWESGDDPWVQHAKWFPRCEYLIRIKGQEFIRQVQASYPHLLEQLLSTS

On to `CN[C@@H](C)C(=O)N[C@H](C(=O)N1CCC[C@H]1CNCCc1ccccc1)C(C)(C)C` [Compound 16], for which the IC50 (commonly the concentration needed to halve the response being measured) is below 10000 nM in [1]; below 1000 nM in test [2]; below 10000 nM in [3]; below 1000 nM in test [4]; above 10000 nM in test [5]; above 10000 nM in [6]. Further, the concentration for a half-maximal effect (EC50) (commonly the concentration at which the effect is half-maximal) in test [7] is below 5000 nM.
Turning to `CC(C)[C@H](NC(=O)[C@H](C)N)C(=O)N1CCC[C@H]1CN(CCCCO)CCc1ccccc1` [Compound 29], the IC50 is below 10000 nM in test [1]; below 1000 nM in test [2]; below 1000 nM in [3]; below 1000 nM in test [4]; below 10000 nM in test [5]; above 10000 nM in test [6].
As to `CC(C)[C@H](NC(=O)[C@H](C)N)C(=O)N1CCC[C@H]1CN(CCc1ccccc1)C(=O)CN` [Compound 30], the IC50 in test [1] is below 1000 nM; in test [2], below 1000 nM; in test [3], below 1000 nM; in [4], below 1000 nM; in [5], above 10000 nM; in [6] it was above 10000 nM.
For `CC(C)[C@H](NC(=O)[C@H](C)N)C(=O)N1CCC[C@H]1CN(CCc1ccccc1)C(=O)CCCc1ccccc1` [Compound 31], the half-maximal inhibitory concentration (IC50) is below 1000 nM in [1]; below 1000 nM in test [2]; below 1000 nM in [3]; below 1000 nM in test [4]; above 10000 nM in test [5]; above 10000 nM in [6].
Regarding `CN[C@@H](C)C(=O)N[C@H](C(=O)N1CCC[C@H]1CN(CCc1ccccc1)C(=O)[C@H](N)Cc1ccccc1)C(C)(C)C` [Compound 42], the IC50 in test [1], in [2] and in test [3] was below 1000 nM each time. Besides, the concentration for a half-maximal effect (EC50) in [7] is below 5000 nM.
For the compound `CN[C@@H](C)C(=O)N[C@H](C(=O)N1CCC[C@H]1CN(CCc1ccccc1)C(=O)[C@@H](N)Cc1ccccc1)C(C)(C)C` [Compound 44], the figures for the half-inhibitory concentration (IC50) in test [1], in test [2] and in test [3] were below 10000 nM, below 1000 nM and below 1000 nM, respectively. Besides, the EC50 in test [7] was below 5000 nM.
On to `CN[C@@H](C)C(=O)N[C@H](C(=O)N1CCC[C@H]1CN(CCc1ccccc1)C(=O)CNCc1ccccc1)C(C)(C)C` [Compound 45], for which the concentration for half-maximal inhibition (IC50) in test [1], in test [2] and in [3] was below 1000 nM throughout. The EC50 in test [7] is below 5000 nM.
Turning to `CN[C@@H](C)C(=O)N[C@H](C(=O)N1CCC[C@H]1CN(CCc1ccccc1)C(=O)CCCc1ccccc1)C(C)(C)C` [Compound 48], the IC50 in [1], in test [2] and in [3] was below 1000 nM throughout. Also, in test [7], the concentration for a half-maximal effect (EC50) is below 5000 nM.
On to `CN[C@@H](C)C(=O)N[C@H](C(=O)N1CCC[C@H]1CN(CCc1ccccc1)C(=O)[C@@H](Cc1ccccc1)NC)C(C)(C)C` [Compound 52], for which the 50% inhibitory concentration (IC50) in test [1], in test [2] and in [3] was below 1000 nM throughout. The EC50 in test [7] is below 5000 nM.
As for `CN[C@@H](C)C(=O)N[C@H](C(=O)N1CCC[C@H]1CN(CCc1ccccc1)C(=O)[C@H](N)Cc1ccc(F)cc1)C(C)(C)C` [Compound 53], the IC50 in test [1], in [2] and in [3] was below 1000 nM in each case. Besides, the EC50 in test [7] was below 5000 nM.
`CN[C@@H](C)C(=O)N[C@H](C(=O)N1CCC[C@H]1CN(CCc1ccccc1)C(=O)c1ccc(F)cc1)C(C)(C)C` [Compound 75]: in test [7], the 50% effective concentration (EC50) is below 5000 nM.
`CN[C@@H](C)C(=O)N[C@@H](CCc1ccccc1)C(=O)N1CCC[C@H]1CN(CCc1ccccc1)C(=O)[C@H](N)Cc1ccc(OC)cc1` [Compound 84]: the concentration giving a half-maximal response (EC50) in [7] is below 5000 nM.
On the same count and under the same terms, the value for `CN[C@@H](C)C(=O)N[C@@H](CCc1ccccc1)C(=O)N1CCC[C@H]1CN(CCc1ccccc1)C(=O)[C@H](N)Cc1ccccc1` [Compound 89] was below 5000 nM.
Take `CN[C@@H](C)C(=O)N[C@H](C(=O)N1CCC[C@H]1CN(CCc1ccccc1)C(=O)CCCCC1SC[C@@H]2NC(=O)N[C@H]12)C(C)(C)C` (stereo partly drawn) [Compound 168]: the “Pull-down of XIAP BIR3 (Western-blot)” value in [8] is on record as “XIAP BIR3 was pulled-down”.
Compound `CN[C@@H](C)C(=O)N[C@H](C(=O)N1CCC[C@H]1CN(CCc1ccccc1)C(=O)c1ccc(C(=O)N(CCc2ccccc2)C[C@@H]2CCCN2C(=O)[C@@H](NC(=O)[C@H](C)NC)C(C)(C)C)cc1)C(C)(C)C` [Compound 175] returned a concentration for a half-maximal effect (EC50) in [9] below 5000 nM.
With `CN[C@@H](C)C(=O)N[C@H](C(=O)N1CCC[C@H]1CN(CCc1ccccc1)C(=O)CCCCCCCCC(=O)N(CCc1ccccc1)C[C@@H]1CCCN1C(=O)[C@@H](NC(=O)[C@H](C)NC)C(C)(C)C)C(C)(C)C` [Compound 176], the EC50 in test [9] was below 5000 nM.
In test [9], `CN[C@@H](C)C(=O)N[C@H](C(=O)N1CCC[C@H]1CN(CCc1ccccc1)C(=O)CCCC(=O)N(CCc1ccccc1)C[C@@H]1CCCN1C(=O)[C@@H](NC(=O)[C@H](C)NC)C(C)(C)C)C(C)(C)C` [Compound 177] had an EC50 below 5000 nM.
The compound `CN[C@@H](C)C(=O)N[C@H](C(=O)N1CCC[C@H]1CN(CCc1ccccc1)C(=O)c1ccc(-c2ccc(C(=O)N(CCc3ccccc3)C[C@@H]3CCCN3C(=O)[C@@H](NC(=O)[C@H](C)NC)C(C)(C)C)cc2)cc1)C(C)(C)C` [Compound 178] came in with a half-maximal effective concentration (EC50) in test [9] below 5000 nM.
